For one assay, the target named is T1, human PI3Kα protein (Homo sapiens, UniProt P42336).
T1 construct: purchased Carna Biosciences, Inc; host or cells: baculovirus expression system
Nature of the assay: PI3Kα enzyme assay (ADP-Glo). The format is biochemical. The note with it: read-out: PI3Kα enzyme inhibitory activity. In outline:
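Biotinylated human PI3Kα (baculovirus-expressed, 4.5 nmol/L) pre-incubated 15 min with compound in Tris-HCl pH 7.5, MgCl2, BSA; reaction 60 min at 25° C with 50 μmol/L PIP2 and 100 μmol/L ATP final. ADP quantified by ADP-Glo luminescence; IC50 calculated.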
For orientation: In ADP-Glo the light output rises with the ADP produced.

Assay [1] deals with T2, GST fusion human ERK2 protein (Homo sapiens, UniProt P28482).
T2 construct: purchased Carna Biosciences, Inc; host or cells: E. coli expression system
The experiment in a line: ERK2 enzyme assay (2). The format is biochemical. The note with it: ERK2 enzyme assay (2); read-out: ERK2 enzyme inhibitory activity (2). In outline: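 GST-tagged human ERK2 expressed in E. coli (1.25 nmol/L) was preincubated with compound for 15 min at room temperature in pH 7.5 Hepes buffer with MgCl2, DTT and Brij35. Reaction with FL-Peptide 8 (final 4.25 μmol/L) and ATP (final 1 mmol/L) ran 120 min at 25 °C; EDTA stopped it, and phosphorylated peptide was quantified by mobility-shift separation to derive IC50.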

T1 sequence (P42336 whole entry): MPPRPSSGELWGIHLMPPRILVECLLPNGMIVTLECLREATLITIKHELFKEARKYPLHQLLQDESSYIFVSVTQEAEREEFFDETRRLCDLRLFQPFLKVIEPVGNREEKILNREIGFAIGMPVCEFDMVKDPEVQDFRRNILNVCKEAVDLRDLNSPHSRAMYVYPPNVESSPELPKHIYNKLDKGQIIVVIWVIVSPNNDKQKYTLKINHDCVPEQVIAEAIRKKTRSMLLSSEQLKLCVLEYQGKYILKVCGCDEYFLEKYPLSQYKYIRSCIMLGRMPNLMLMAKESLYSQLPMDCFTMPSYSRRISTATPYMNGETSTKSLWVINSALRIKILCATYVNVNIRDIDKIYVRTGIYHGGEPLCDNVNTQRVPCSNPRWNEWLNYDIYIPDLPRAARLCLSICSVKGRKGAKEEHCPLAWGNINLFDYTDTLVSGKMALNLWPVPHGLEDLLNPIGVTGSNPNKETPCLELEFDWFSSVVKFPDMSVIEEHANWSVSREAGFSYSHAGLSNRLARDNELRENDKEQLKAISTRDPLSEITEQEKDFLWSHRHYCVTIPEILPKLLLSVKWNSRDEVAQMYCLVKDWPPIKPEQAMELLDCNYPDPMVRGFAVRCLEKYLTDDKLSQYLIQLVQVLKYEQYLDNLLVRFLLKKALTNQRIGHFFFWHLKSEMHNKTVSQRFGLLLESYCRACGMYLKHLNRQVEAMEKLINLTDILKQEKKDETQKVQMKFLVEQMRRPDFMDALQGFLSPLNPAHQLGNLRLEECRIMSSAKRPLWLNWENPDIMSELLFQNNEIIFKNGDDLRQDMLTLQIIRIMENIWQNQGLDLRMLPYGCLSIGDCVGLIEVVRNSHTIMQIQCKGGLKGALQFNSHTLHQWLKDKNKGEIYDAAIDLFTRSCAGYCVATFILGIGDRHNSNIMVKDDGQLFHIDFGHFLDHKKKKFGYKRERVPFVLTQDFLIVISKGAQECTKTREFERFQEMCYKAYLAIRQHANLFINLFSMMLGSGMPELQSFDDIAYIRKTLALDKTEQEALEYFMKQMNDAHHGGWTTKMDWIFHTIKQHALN
T1 sequence (P27986 whole entry partner): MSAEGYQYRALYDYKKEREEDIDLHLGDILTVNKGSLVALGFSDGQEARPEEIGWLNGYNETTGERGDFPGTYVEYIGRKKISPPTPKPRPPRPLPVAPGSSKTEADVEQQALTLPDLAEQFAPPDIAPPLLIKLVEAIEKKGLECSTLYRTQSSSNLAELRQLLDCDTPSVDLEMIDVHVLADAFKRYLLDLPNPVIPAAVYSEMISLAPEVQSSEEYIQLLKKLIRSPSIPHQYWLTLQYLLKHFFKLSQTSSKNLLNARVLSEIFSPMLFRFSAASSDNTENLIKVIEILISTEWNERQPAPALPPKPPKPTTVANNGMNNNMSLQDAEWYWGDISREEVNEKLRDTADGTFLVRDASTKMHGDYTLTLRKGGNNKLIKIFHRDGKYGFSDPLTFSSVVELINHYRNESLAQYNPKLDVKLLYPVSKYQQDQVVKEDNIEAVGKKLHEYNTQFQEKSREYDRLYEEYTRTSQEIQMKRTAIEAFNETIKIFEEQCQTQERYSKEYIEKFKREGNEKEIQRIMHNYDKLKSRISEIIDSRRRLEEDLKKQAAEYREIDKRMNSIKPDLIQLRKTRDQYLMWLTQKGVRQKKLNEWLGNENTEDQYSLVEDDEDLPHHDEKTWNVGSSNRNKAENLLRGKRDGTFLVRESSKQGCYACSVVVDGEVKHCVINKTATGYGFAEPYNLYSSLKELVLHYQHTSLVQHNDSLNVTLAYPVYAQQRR
T2 sequence (P28482 whole entry, the tested form may be a part): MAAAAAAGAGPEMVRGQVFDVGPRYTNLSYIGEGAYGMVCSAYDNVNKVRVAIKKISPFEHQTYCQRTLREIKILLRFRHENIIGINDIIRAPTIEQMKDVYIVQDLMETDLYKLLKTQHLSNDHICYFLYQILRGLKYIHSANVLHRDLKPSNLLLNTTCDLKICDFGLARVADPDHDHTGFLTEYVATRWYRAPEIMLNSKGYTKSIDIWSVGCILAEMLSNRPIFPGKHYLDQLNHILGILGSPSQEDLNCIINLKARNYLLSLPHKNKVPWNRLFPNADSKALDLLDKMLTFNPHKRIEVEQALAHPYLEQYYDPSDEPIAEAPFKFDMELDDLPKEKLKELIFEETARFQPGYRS

With `CC(C)c1ccnc(Nc2ccc3ncc(-c4cnn(C)c4)cc3n2)c1` [Example 0551, N-(4-isopropylpyridin-2-yl)-7-(1-methyl-1H-pyrazol-4-yl)-1,5-naphthyridine-2-amine], the IC50 on human PI3Kα protein was below 1000 nM; in assay [1], 10000 to 50000 nM.

As to `CC(C)c1cnnc(Nc2ccc3ncc(-c4cn(C)nc4-c4cncnc4)cc3n2)c1` [Example 0553], the IC50 (on human PI3Kα protein; in assay [1]) was below 1000 nM each time.

For `Cn1cc(-c2cnc3ccc(Nc4cc(N5CCOCC5)cnn4)nc3c2)cn1` [Example 0554, 7-(1-methyl-1H-pyrazol-4-yl)-N-(5-morpholinopyridazin-3-yl)-1,5-naphthyridine-2-amine], the IC50 (on human PI3Kα protein; in assay [1]) was below 1000 nM throughout.

`Cc1cncc(-c2nn(C)cc2-c2cnc3ccc(Nc4cc(C(C)C)cnn4)nc3c2)c1` [Example 0555]: the IC50 (on human PI3Kα protein; in assay [1]) was below 1000 nM in each case.

Consider `CC(C)c1cnnc(Nc2ccc3ncc(-c4cnn(C[C@@H]5CCC(=O)N5)c4)cc3n2)c1` [Example 0556], for which the IC50 (at human PI3Kα protein; in assay [1]) was below 1000 nM in each case.

For `CC(C)c1cnnc(Nc2ccc3ncc(-c4cnn(CC(=O)N5CCOCC5)c4)cc3n2)c1` [Example 0558], the IC50 (on human PI3Kα protein; in assay [1]) was below 1000 nM throughout.

For `Cn1cc(-c2cnc3ccc(Nc4cc(C(C)(C)CO[Si](C)(C)C(C)(C)C)cnn4)nc3c2)cn1` [Example 0559, N-(5-(1-((tert-butyldimethylsilyl)oxy)-2-methylpropan-2-yl)pyridazin-3-yl)-7-(1-methyl-1H-pyrazol-4-yl)-1,5-naphthyridine-2-amine], the IC50 at human PI3Kα protein was 10000 to 50000 nM; in assay [1], below 1000 nM.

As to `Cn1cc(-c2cnc3ccc(Nc4cc(C(C)(C)CO)cnn4)nc3c2)cn1` [Example 0560, 2-methyl-2-(6-((7-(1-methyl-1H-pyrazol-4-yl)-1,5-naphthyridin-2-yl)amino)pyridazin-4-yl)propan-1-ol], the IC50 (at human PI3Kα protein; in assay [1]) was below 1000 nM in each case.

With `CC(C)c1cnnc(Nc2ccc3ncc(-c4cnn(CC(=O)N5CCCCC5)c4)cc3n2)c1` [Example 0561], the IC50 (at human PI3Kα protein; in assay [1]) was below 1000 nM each time.

On to `COCC(C)(C)c1cnnc(Nc2ccc3ncc(-c4cnn(C)c4)cc3n2)c1` [Example 0562], for which the IC50 (at human PI3Kα protein; in assay [1]) was below 1000 nM each time.

On to `CC(C)c1cnnc(Nc2ccc3ncc(-c4cnn(C5CC5)c4)cc3n2)c1` [Example 0563, 7-(1-Cyclopropyl-1H-pyrazol-4-yl)-N-(5-isopropylpyridazin-3-yl)-1,5-naphthyridine-2-amine], for which the IC50 (at human PI3Kα protein; in assay [1]) was below 1000 nM each time.

`Cn1cc(-c2cnc3ccc(Nc4cc(C5CC5)cnn4)nc3c2)cn1` [Example 0564]: the IC50 (at human PI3Kα protein; in assay [1]) was below 1000 nM in each case.

For `Cc1nn(C)cc1-c1cnc2ccc(Nc3cc(C4CC4)cnn3)nc2c1` [Example 0565], the IC50 (on human PI3Kα protein; in assay [1]) was below 1000 nM throughout.

`CC(C)c1cnnc(Nc2ccc3ncc(-c4cnn(C[C@H]5CCC(=O)N5)c4)cc3n2)c1` [Example 0566]: the IC50 (at human PI3Kα protein; in assay [1]) was below 1000 nM in each case.

Turning to `CC(C)c1cnnc(Nc2ccc3ncc(-c4cnn(C[C@H]5CCC(=O)N5C)c4)cc3n2)c1` [Example 0568], the IC50 (at human PI3Kα protein; in assay [1]) was below 1000 nM throughout.

For the compound `CCC(C)c1cnnc(Nc2ccc3ncc(-c4cnn(C)c4)cc3n2)c1` (stereo not drawn) [Example 0569], the IC50 (at human PI3Kα protein; in assay [1]) was below 1000 nM in each case.

Turning to `CC(C)Cc1cnnc(Nc2ccc3ncc(-c4cnn(C)c4)cc3n2)c1` [Example 0571], the IC50 (at human PI3Kα protein; in assay [1]) was below 1000 nM throughout.

In the case of `Cc1nc(C)c(-c2cnc3ccc(Nc4cc(C(C)C)cnn4)nc3c2)s1` [Example 0574, 7-(2,4-dimethylthiazol-5-yl)-N-(5-isopropylpyridazin-3-yl)-1,5-naphthyridine-2-amine], the IC50 at human PI3Kα protein is 1000 to 10000 nM; in assay [1], below 1000 nM.

These data come from US9783536B2, “Nitrogen-containing heterocyclic compound or salt thereof” (FUJIFILM Corporation, priority 2013, dated 2017).
